{"source": "BindingDB's records for PubMed 34138567", "about": "(National Clinical Research Center For Geriatrics, 2021)", "key": {"[1]": {"assay": "Inhibition of PI3Kdelta in anti-FceRI-stimulated human Basophil cells degranulation incubated for 30 mins"}, "[2]": {"assay": "Inhibition of PI3Kdelta in conA-stimulated primary human T cell proliferation incubated for 1 hr by CellTiter-glo luminescent assay"}}}
{"smiles": "C[C@H]1CC[C@@H](c2nc3cccc(Cl)c3c(=O)n2-c2cccc(F)c2)N1c1ncnc2[nH]cnc12", "values": [{"measurement": "IC50", "setting": "[1]", "result": 8.2, "unit": "nM"}, {"measurement": "IC50", "setting": "[2]", "result": 21, "unit": "nM"}]}
